From article PMC11237586, “4′-Fluorouridine inhibits alphavirus replication and infection in vitro and in vivo” (mBio, 2024)

Tests used:
[1] = molecular target: CHIKV nsP4 (RdRp) with SFV P123, mixed trans-replicase (Chikungunya virus strain S27-African prototype, UniProt Q8JUX6); assay: cell-based
[2] = molecular target: SFV nsP4 (RdRp) with SFV P123, trans-replicase (Semliki Forest virus, UniProt P08411); assay: trans-replicase Gaussia luciferase reporter assay in transfected U-2 OS cells; assay type: cell-based
Sequence of SFV nsP4 (RdRp) with SFV P123, trans-replicase (P08411 1-1818): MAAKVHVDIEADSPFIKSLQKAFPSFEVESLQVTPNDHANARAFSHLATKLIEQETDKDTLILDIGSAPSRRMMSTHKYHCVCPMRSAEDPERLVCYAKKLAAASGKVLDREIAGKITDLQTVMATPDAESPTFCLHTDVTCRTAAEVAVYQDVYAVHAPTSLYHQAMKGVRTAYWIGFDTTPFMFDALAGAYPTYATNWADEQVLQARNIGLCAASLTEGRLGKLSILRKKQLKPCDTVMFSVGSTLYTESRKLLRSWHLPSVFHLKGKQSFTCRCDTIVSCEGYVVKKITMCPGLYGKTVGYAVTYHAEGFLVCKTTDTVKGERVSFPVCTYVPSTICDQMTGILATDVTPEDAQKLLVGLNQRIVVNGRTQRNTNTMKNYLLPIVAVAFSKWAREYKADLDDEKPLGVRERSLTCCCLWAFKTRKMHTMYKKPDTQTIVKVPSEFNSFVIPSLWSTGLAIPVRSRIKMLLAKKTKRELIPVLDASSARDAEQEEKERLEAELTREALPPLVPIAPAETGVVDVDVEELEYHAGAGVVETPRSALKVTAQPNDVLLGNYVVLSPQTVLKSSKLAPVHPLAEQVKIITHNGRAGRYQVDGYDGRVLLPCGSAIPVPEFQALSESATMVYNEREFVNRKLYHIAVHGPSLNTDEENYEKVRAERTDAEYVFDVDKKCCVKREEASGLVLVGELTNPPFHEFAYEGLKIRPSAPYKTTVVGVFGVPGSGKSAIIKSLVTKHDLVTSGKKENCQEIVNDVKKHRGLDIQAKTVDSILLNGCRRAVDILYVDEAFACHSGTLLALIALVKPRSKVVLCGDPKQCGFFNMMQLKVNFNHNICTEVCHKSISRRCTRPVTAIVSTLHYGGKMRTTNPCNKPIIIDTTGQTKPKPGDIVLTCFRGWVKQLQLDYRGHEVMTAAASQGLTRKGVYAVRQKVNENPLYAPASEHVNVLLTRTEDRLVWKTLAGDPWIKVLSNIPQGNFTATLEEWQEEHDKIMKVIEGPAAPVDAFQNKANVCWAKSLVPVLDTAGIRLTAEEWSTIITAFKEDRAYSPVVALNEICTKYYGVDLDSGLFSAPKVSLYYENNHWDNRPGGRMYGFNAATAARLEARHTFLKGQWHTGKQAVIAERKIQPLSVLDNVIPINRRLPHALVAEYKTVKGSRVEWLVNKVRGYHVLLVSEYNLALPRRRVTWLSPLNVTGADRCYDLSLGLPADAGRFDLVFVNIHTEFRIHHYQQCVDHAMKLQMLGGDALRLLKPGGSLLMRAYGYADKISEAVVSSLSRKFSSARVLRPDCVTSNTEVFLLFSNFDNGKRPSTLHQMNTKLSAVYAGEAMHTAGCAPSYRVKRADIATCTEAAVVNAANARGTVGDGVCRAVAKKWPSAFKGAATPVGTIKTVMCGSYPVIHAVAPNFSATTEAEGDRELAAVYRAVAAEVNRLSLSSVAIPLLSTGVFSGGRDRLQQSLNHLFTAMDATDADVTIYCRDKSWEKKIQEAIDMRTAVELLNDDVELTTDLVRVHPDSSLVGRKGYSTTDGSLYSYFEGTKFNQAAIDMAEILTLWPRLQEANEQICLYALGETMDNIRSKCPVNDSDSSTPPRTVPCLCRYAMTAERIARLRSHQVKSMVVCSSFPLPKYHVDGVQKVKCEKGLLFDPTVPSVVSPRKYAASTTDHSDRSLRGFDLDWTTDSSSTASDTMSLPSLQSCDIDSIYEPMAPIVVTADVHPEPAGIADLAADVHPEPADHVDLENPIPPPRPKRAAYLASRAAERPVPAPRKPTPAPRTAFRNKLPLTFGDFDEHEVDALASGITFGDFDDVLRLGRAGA
Sequence of SFV nsP4 (RdRp) with SFV P123, trans-replicase (P08411 1819-2431): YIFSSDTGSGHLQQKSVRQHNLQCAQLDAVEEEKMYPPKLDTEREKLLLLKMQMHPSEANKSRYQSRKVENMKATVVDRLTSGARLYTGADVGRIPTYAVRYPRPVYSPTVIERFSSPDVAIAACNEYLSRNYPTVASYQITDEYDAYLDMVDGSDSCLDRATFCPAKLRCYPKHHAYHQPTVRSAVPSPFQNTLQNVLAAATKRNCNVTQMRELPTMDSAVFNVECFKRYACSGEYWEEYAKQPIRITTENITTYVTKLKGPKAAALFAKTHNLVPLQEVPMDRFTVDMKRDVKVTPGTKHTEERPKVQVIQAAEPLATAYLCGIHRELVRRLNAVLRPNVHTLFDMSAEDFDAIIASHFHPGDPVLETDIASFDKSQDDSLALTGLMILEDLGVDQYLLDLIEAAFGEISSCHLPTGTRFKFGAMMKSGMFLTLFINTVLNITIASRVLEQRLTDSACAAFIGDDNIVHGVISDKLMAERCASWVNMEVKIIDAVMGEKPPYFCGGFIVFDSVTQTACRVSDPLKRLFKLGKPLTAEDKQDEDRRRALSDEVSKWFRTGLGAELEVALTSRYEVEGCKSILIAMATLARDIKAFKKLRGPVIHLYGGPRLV

Sequence of CHIKV nsP4 (RdRp) with SFV P123, mixed trans-replicase (Q8JUX6 1864-2474): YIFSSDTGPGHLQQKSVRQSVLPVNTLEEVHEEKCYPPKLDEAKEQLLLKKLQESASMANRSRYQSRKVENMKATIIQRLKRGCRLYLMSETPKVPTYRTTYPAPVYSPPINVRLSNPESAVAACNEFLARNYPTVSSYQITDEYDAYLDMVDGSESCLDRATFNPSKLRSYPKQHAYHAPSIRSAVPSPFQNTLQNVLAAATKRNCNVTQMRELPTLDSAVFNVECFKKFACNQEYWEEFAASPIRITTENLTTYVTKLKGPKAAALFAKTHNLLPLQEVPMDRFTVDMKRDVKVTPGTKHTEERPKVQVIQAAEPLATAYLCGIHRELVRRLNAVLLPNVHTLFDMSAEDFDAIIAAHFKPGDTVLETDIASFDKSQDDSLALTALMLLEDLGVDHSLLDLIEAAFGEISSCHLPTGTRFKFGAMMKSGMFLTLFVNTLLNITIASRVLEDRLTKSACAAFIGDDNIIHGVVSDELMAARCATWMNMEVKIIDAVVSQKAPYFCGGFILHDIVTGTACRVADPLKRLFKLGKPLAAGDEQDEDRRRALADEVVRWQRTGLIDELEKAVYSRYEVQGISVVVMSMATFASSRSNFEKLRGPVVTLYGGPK
Sequence of CHIKV nsP4 (RdRp) with SFV P123, mixed trans-replicase (P08411 1-1818, further chain): as the sequence (P08411 1-1818) above

`O=c1ccn([C@@H]2O[C@](F)(CO)[C@@H](O)[C@H]2O)c(=O)[nH]1` [4′-fluorouridine] gave an EC50 [1] of 0.64 µM and an EC50 [2] of 2.1 µM.
